# Experimental data: ChEMBL document CHEMBL5143516, “Design, synthesis, and biological evaluation of N-(3-cyano-1H-indol-5/6-yl)-6-oxo-1,6-dihydropyrimidine-4-carboxamides and 5-(6-oxo-1,6-dihydropyrimidin-2-yl)-1H-indole-3-carbonitriles as novel xanthine oxidase inhibitors” (Eur J Med Chem, 2022)
# The source made the active and inactive calls. The rule behind the calls is not given here.
# Test system: Rattus norvegicus
# Experiment: Anti-hyperuricemic activity against potassium oxonate-induced acute hyperuricemia Sprague-Dawley rat model assessed as reduction in serum uric acid level at 10 mg/kg, po pretreated with potassium oxonate for 1 hr followed by compound treatment and measured after 8 hrs
# Type: functional, organism-based
row,Compound,Activity
1,Cc1nc(-c2ccc(OCC(C)C)c(C#N)c2)sc1C(=O)O [FEBUXOSTAT],Active
2,Oc1ncnc2[nH]ncc12,Active
3,CC(C)n1cc(C#N)c2cc(-c3nccc(O)n3)ccc21,Active
4,N#Cc1cn(C2CCCC2)c2ccc(NC(=O)c3cc(=O)[nH]cn3)cc12,Active

# Target: Xanthine dehydrogenase/oxidase (Homo sapiens, UniProt P47989)
# Sequence (P47989 whole entry): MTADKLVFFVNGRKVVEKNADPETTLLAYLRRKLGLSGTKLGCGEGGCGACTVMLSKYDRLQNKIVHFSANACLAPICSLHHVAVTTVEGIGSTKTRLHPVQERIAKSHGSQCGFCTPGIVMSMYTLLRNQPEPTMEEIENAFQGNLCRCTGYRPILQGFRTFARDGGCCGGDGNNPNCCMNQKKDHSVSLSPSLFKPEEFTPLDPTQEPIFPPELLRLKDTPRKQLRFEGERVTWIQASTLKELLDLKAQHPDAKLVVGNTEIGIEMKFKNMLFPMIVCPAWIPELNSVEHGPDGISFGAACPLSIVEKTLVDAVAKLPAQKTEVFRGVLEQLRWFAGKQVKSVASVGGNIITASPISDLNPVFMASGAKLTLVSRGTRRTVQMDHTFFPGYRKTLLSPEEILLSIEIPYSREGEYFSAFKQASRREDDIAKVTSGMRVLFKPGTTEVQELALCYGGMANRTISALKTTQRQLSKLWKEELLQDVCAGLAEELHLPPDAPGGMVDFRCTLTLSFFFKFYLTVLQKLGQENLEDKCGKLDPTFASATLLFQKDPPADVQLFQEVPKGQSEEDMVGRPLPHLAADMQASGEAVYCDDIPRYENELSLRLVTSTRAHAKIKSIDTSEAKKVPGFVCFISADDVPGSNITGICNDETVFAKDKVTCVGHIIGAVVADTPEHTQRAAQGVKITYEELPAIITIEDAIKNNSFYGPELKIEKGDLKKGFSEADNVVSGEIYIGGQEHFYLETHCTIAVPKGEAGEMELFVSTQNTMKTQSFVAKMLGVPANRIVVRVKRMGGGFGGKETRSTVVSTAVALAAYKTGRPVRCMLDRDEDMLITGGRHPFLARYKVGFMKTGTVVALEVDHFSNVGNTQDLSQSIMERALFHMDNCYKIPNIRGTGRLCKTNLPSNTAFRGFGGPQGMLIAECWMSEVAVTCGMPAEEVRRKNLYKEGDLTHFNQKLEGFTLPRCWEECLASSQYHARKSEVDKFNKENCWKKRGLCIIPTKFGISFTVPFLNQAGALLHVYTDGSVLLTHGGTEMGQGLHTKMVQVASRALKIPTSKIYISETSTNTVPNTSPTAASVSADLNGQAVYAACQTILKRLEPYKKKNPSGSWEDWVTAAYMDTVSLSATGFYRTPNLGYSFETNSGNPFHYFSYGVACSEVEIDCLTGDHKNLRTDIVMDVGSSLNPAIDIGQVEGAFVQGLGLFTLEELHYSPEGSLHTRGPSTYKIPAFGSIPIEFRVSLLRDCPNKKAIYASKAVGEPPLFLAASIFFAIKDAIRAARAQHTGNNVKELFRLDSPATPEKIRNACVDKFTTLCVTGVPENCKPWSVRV
# Experiment: Inhibition of xanthine oxidase (unknown origin) using xanthine as substrate incubated for 15 mins followed by substrate addition by spectrophotometric analysis
row,Compound,IC50
1,N#Cc1cn(CC2CC2)c2cc(NC(=O)c3cc(=O)[nH]cn3)ccc12,> 10 µM
2,Cc1nc(C(=O)Nc2ccc3c(C#N)cn(C4CCCC4)c3c2)cc(=O)[nH]1,> 10 µM
3,CC(C)n1cc(C#N)c2ccc(NC(=O)c3cc(=O)[nH]cn3)cc21,> 10 µM
4,C=CCn1cc(C#N)c2ccc(NC(=O)c3cc(=O)[nH]cn3)cc21,> 10 µM
5,Cc1nc(-c2ccc(OCC(C)C)c(C#N)c2)sc1C(=O)O [FEBUXOSTAT],0.023 µM
6,CC(C)=CCn1cc(C#N)c2ccc(NC(=O)c3cc(=O)[nH]cn3)cc21,> 10 µM
7,COc1ccnc(-c2ccc3c(c2)c(C#N)cn3C(C)C)n1,> 10 µM
8,N#Cc1cn(C2CCCC2)c2cc(NC(=O)c3cc(=O)[nH]cn3)ccc12,> 10 µM
9,CC(C)(C)c1ccc(Cn2cc(C#N)c3cc(NC(=O)c4cc(=O)[nH]cn4)ccc32)cc1,> 10 µM
10,CC(C)Cn1cc(C#N)c2ccc(NC(=O)c3cc(=O)[nH]cn3)cc21,> 10 µM
